One series has as its system P388D1 cells. Kind of series: Hydrogen peroxide (H2O2) induced cytotoxicity suppressive action. The class given is cell-based. Particulars: H2O2 (2 mM), 4 hr, LDH activity, read-out: Cell death suppressive action IC50. As for the experimental part: P388D1 cells cultured to confluence in a 25 cm^2 flask were sown in 96-well plate at a density of […]. The test compound was added, and the cells were incubated for 15 min (37° C.), after which H2O2 (2 mM) was added, and the cells were incubated for 4 hr. After the completion of the incubation, the culture supernatant was recovered, and the LDH activity, which is an index of cytotoxicity, was measured using an LDH-cytotoxicity test kit (Wako Pure Chemical Industries, Ltd.).

A further series concerns the target Recombinant human PARP (Homo sapiens, UniProt P09874). The experiment in a line: PARP enzyme activity inhibitory action. Particulars: for IC50: 3H-NAD, activated DNA, 25° C. 15 min.
Series [1] is described as follows: Stability test in 0.1 mol/L aqueous citric acid solution (HPLC residual ratio). The class given is physicochemical. The following applies: 5 mg in 1 ml 0.1 mol/L aqueous citric acid, room temperature. As for the experimental part:
Each test compound (5 mg) was dissolved in 0.1 mol/L aqueous citric acid solution (1 ml), and the residual ratio of each compound was measured by HPLC under shading or no shading at room temperature one day and 8 days later. The residual ratio was calculated by comparing the area of HPLC immediately after dissolution of each compound with the area of HPLC one day or 8 days later.
column CAPCELPAK UG120 (C18)(Shiseido Co., Ltd.)
mobile phase 50 mmol/L aqueous sodium perchlorate solution (pH
detection wavelength 254 nm

Another series has as its target adrenalin α1 receptor. The experiment in a line: Affinity for adrenalin α1 receptor; 3H-prazosin binding. The following applies: rat brain crude synapse membrane, 25° C. 30 min. The protocol: Preparation of crude synapse membrane and binding experiment were performed according to European Journal of Pharmacology, vol. 55, page 323 (1979). Crude synapse membranes were prepared from cryopreserved rat brain tissues, and a membrane sample and 3H-prazosin were incubated in the presence of a test compound at 25° C. for 30 min. […] The amount of non-specific binding was determined in the presence of 1 μM prazosin. The 50% suppression concentration (IC50) of the test compound was calculated from nonlinear regression, and the inhibition constant (Ki value) was determined.

The mark [2] stands for this setting: PARP inhibitory activity IC50 (nM), average of 2 measurements.
[3] abbreviates: PARP inhibitory activity IC50 (nM), average of 3 measurements.

Counter-ions that a name gives are not always drawn. Like-named read-outs stand apart in the source and are kept apart here. A value given as a limit tells only on which side of the number the result lay.

Sequence of Recombinant human PARP (P09874 whole entry): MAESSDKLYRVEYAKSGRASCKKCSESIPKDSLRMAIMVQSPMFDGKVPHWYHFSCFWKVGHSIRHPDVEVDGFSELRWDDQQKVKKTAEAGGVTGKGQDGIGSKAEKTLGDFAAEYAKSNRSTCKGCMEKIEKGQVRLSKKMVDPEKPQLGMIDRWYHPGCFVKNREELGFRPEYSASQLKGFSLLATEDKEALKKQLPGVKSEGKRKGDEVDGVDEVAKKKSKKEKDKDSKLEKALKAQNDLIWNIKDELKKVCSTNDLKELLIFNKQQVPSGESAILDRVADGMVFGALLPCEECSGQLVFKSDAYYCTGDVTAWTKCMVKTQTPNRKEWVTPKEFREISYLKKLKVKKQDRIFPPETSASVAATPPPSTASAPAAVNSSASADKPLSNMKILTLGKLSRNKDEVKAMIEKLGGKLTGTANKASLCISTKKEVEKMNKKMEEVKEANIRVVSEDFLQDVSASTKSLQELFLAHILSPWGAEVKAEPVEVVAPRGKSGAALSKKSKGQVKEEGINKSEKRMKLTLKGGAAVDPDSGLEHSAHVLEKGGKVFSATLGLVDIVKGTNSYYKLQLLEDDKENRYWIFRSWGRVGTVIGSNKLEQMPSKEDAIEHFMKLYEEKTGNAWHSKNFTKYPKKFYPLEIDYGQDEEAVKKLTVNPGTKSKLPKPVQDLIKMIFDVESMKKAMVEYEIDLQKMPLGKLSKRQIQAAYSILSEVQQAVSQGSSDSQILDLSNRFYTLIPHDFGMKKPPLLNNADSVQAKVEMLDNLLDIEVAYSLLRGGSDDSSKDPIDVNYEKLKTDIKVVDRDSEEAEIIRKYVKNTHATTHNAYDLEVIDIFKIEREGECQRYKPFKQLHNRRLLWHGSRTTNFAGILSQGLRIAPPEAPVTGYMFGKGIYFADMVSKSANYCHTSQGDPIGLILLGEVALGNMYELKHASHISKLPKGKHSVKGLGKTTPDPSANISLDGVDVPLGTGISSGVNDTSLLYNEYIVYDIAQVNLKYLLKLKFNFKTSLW
Procedure for Recombinant human PARP: After incubation at 25° C. for 15 min., the reaction was quenched with 20% trichloroacetic acid, and the resulting acid insoluble fraction was adsorbed on a GF/B filter. The filter was washed several times with 5% trichloroacetic acid, and the radiation dose on the filter was measured by liquid scintillation counter.

Turning to `O=C1NCCc2c(OCCCCN3CCCCC3)cccc21` [DPQ, 3,4-dihydro-5-[4-(1-piperidinyl)-butoxy]-1(2H)-isoquinoline, reference compound], the IC50 with P388D1 cells stood at 3.3 µM; at Recombinant human PARP (read-out: PARP inhibitory activity IC50, average of 3 measurements) it was 1000 nM.

As to `Cc1cccc2c(=O)[nH]c(N3CCN(C)CC3)cc12` [Example 1, 5-methyl-3-(4-methylpiperazin-1-yl)-2H-isoquinolin-1-one], the results for the IC50 in the series on P388D1 cells (Mus musculus), on Recombinant human PARP (setting [2]) and on Recombinant human PARP (setting [3]) were 0.12 µM, 42 nM and 38 nM, respectively.

With `Cc1cccc2c(=O)[nH]c(N3CCC(N(C)C)CC3)cc12` [Example 12, 5-methyl-3-(4-dimethylaminopiperidin-1-yl)-2H-isoquinolin-1-one], the IC50 with P388D1 cells (Mus musculus) was 0.11 µM; on Recombinant human PARP (setting [2]) it was 34 nM; on Recombinant human PARP (setting [3]), 37 nM.

Consider `CN1CCC(c2cc3ccccc3c(=O)[nH]2)CC1` [Example 82, 3-(1-methylpiperidin-4-yl)-2H-isoquinolin-1-one ⅕ water adduct], for which the IC50 with P388D1 cells (Mus musculus) came out at 0.19 µM. Further, in series [1], the “residual ratio (%) under shading 1 day later” value is “≈100%”, the “residual ratio (%) under shading 8 days later” value is recorded as “≈100%”, the “residual ratio (%) without shading 1 day later” value is “≈100%” and the “residual ratio (%) without shading 8 days later” value was “≈100%”. Besides, the IC50 on Recombinant human PARP (setting [3]) was 34 nM.

Regarding `Cc1cccc2c(=O)[nH]c(CCCN(C)C)cc12` [Example 90, 3-(3-(dimethylamino)propyl)-5-methyl-2H-isoquinolin-1-one], the values for the IC50 in the series with P388D1 cells (Mus musculus) and on Recombinant human PARP (setting [3]) were 0.14 µM and 26 nM, respectively.

In the case of `CN1CCC(c2cc3c(O)cccc3c(=O)[nH]2)CC1` [Example 108, 5-hydroxy-3-(1-methylpiperidin-4-yl)-2H-isoquinolin-1-one], the IC50 in the series with P388D1 cells (Mus musculus) is 0.124 µM. Besides, in series [1], the “residual ratio (%) under shading 1 day later” value is reported as “≈100%”, the “residual ratio (%) under shading 8 days later” value was “≈100%”, the “residual ratio (%) without shading 1 day later” value is “≈100%” and the “residual ratio (%) without shading 8 days later” value is on record as “≈100%”. In addition, the half-maximal inhibitory concentration (IC50) on Recombinant human PARP (setting [3]) is 12 nM.

Regarding `Cc1cccc2c(=O)[nH]c(C3CCN(C)CC3)nc12` [Example 121, 2-(1-methylpiperidin-4-yl)-8-methyl-3H-quinazolin-4-one], the IC50 with P388D1 cells (Mus musculus) stood at 0.24 µM; on Recombinant human PARP (setting [3]) it was 37 nM. Moreover, the “residual ratio (%) under shading 1 day later” value in series [1] was “≈100%”. The “residual ratio (%) under shading 8 days later” value in series [1] is “≈100%”.

Consider `CN1CCN(c2cc3ccccc3c(=O)[nH]2)C[C@H]1CO` [Example 156, (S)-3-(3-hydroxymethyl-4-methylpiperazin-1-yl)-2H-isoquinolin-1-one], for which the half-inhibitory concentration (IC50) amounted to 0.23 µM in the series on P388D1 cells (Mus musculus) and 35 nM on Recombinant human PARP (setting [3]). The Ki on adrenalin α1 receptor is > 100 µM.

For the molecule `Cc1cccc2c(=O)[nH]c(C3CCN(C)CC3)cc12` [Example 178, 5-methyl-3-(1-methylpiperidin-4-yl)-2H-isoquinolin-1-one], the IC50 came out at 0.09 µM in the series with P388D1 cells (Mus musculus) and 23 nM at Recombinant human PARP (setting [3]).

As for `CN1CCC(c2cc3c(N)cccc3c(=O)[nH]2)CC1` [Example 181, 5-amino-3-(1-methylpiperidin-4-yl)-2H-isoquinolin-1-one], the IC50 was determined as 0.22 µM with P388D1 cells (Mus musculus) and 22 nM on Recombinant human PARP (setting [3]).

As for `CN1CCC(C2Cc3c(O)cccc3C(=O)N2)CC1` (centres unmarked) [Example 184, 5-hydroxy-3-(1-methylpiperidin-4-yl)-3,4-dihydro-2H-isoquinolin-1-one], the melting point was 216 to 218 °C. Also, the IC50 at Recombinant human PARP (setting [3]) amounted to 26 nM.

With `CN(C)CCCc1cc2c(O)cccc2c(=O)[nH]1` [Example 186, 5-hydroxy-3-(3-dimethylaminopropyl)-2H-isoquinolin-1-one hydrochloride], the values for the IC50 in the series on P388D1 cells (Mus musculus) and on Recombinant human PARP (setting [3]) were 0.13 µM and 14 nM, respectively.

With `CN(C)CCCCc1cc2c(O)cccc2c(=O)[nH]1.Cl` [Example 188, 5-hydroxy-3-(4-dimethylaminobutyl)-2H-isoquinolin-1-one hydrochloride], the melting point lay within 231 to 233 °C. For the same molecule, on Recombinant human PARP (setting [3]), the concentration for half-maximal inhibition (IC50) turned out to be 57 nM.

Consider `O=c1[nH]c(CCN2CCCCC2)cc2c(O)cccc12` [Example 189, 5-hydroxy-3-(2-(piperidin-1-yl)ethyl)-2H-isoquinolin-1-one], for which the values for the IC50 in the series with P388D1 cells (Mus musculus) and on Recombinant human PARP (setting [3]) were 0.085 µM and 17 nM, respectively.

In the case of `CN1CC=C(c2cc3ccccc3c(=O)[nH]2)CC1` [Example 190, 3-(1-methyl-1,2,3,6-tetrahydropyridin-4-yl)-2H-isoquinolin-1-one], the melting point lay in the range of 222 to 223 °C. Moreover, the IC50 at Recombinant human PARP (setting [3]) was 39 nM.

In turn, `CN1CCN(c2cc3c(F)cccc3c(=O)[nH]2)CC1CO` (centres unmarked) [Example 205, 5-fluoro-3-(3-hydroxymethyl-4-methylpiperazin-1-yl)-2H-isoquinolin-1-one] had a melting point of 216 to 217 °C. Moreover, at Recombinant human PARP (setting [3]), the IC50 came to 54 nM.

Take `Cc1cccc2c(=O)[nH]c(N3CCN(C)[C@H](CO)C3)cc12` [Example 212, (S)-3-(3-hydroxymethyl-4-methylpiperazin-1-yl)-5-methyl-2H-isoquinolin-1-one]: the IC50 turned out to be 0.07 µM in the series with P388D1 cells (Mus musculus) and 23 nM at Recombinant human PARP (setting [3]). Further, at adrenalin α1 receptor, the Ki is > 100 µM.

`O=c1[nH]c(CCCN2CCCC2)cc2ccccc12` [Example 213, 3-(3-(pyrrolidin-1-yl)propyl)-2H-isoquinolin-1-one] registered a melting point of 117 to 119 °C. Further, the IC50 at Recombinant human PARP (setting [3]) came to 57 nM.

`CN1CCN(c2cc3c(Cl)cccc3c(=O)[nH]2)CC1CO` (centres unmarked) [Example 214, 5-chloro-3-(3-hydroxymethyl-4-methylpiperazin-1-yl)-2H-isoquinolin-1-one] showed a melting point of 212 to 214 °C. For the same molecule, at Recombinant human PARP (setting [3]), the IC50 was 45 nM.

Take `O=c1[nH]c(CCCN2CCCC2)cc2c(O)cccc12` [Example 217, 5-hydroxy-3-(3-(pyrrolidin-1-yl)propyl)-2H-isoquinolin-1-one]: the melting point was 222 to 225 °C. Besides, at Recombinant human PARP (setting [3]), the IC50 came out at 28 nM.

As for `CN1CCN(c2cc3ccccc3c(=O)[nH]2)CC1` [Example Y-3011, reference compound], on adrenalin α1 receptor, the Ki was 4 µM. Further, in series [1], the “residual ratio (%) under shading 1 day later” value was 76% and the “residual ratio (%) under shading 8 days later” value turned out to be 32%. On Recombinant human PARP (setting [3]), the IC50 is 50 nM. Further, the “PARP inhibitory activity (in words)” value on Recombinant human PARP (comparison drawn from Table 1) was “most superior PARP inhibitory activity”.

A word on the IC50: it is the concentration that inhibits the measured activity by half. What is called Ki is a dissociation constant, usually derived from enzyme kinetics or from competition with a known ligand. A higher Ki goes with a looser hold on the target. The melting point is the temperature, or range, at which the solid turns liquid.
